Results reported in ChEMBL document CHEMBL1201862, “PubChem BioAssay data set” (2004).
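A five-concentration, 48-hour dose response in 96-well plates underlies each endpoint, interpolated linearly between surrounding concentrations. Abbreviation: GI50, concentration required for 50% inhibition of growth.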 Calls of active or inactive are those of the source. Rule as the data show it: active = GI50 up to about 1.1 µM and inactive = higher.

Assays:
Experiment in all cases: NCI tumour cell line growth inhibition, 48 h
HCT-116 = test system: HCT-116
NCI/ADR-RES = test system: NCI/ADR-RES
HL-60 = test system: HL-60
RPMI-8226 = test system: RPMI-8226
NCI-H460 = test system: NCI-H460
SNB-19 = test system: SNB-19
TK-10 = test system: TK-10
UACC-257 = test system: UACC-257
MOLT-4 = test system: MOLT-4
OVCAR-8 = test system: OVCAR-8
BT-549 = test system: BT-549
COLO 205 = test system: COLO 205
OVCAR-3 = test system: OVCAR-3
NCI-H23 = test system: NCI-H23
MDA-MB-231 = test system: MDA-MB-231
SW-620 = test system: SW-620
MDA-MB-435 = test system: MDA-MB-435
IGROV-1 = test system: IGROV-1
SK-MEL-28 = test system: SK-MEL-28
OVCAR-4 = test system: OVCAR-4

Structure (SMILES)	GI50 (HCT-116)	GI50 (NCI/ADR-RES)	GI50 (HL-60)	GI50 (RPMI-8226)	GI50 (NCI-H460)	GI50 (SNB-19)	GI50 (TK-10)	GI50 (UACC-257)	GI50 (MOLT-4)	GI50 (OVCAR-8)	GI50 (BT-549)	GI50 (COLO 205)	GI50 (OVCAR-3)	GI50 (NCI-H23)	GI50 (MDA-MB-231)	GI50 (SW-620)	GI50 (MDA-MB-435)	GI50 (IGROV-1)	GI50 (SK-MEL-28)	GI50 (OVCAR-4)
CC(C)(C)OC(=O)NCCCCC1NC(=O)[C@@H]2Cc3c([nH]c4ccccc34)C(C3CCCCC3)N2C1=O (stereo not given in full)	29.4 µM (inactive)	57.9 µM (inactive)	31.1 µM (inactive)	12.2 µM (inactive)	29.2 µM (inactive)	57.7 µM (inactive)	21.8 µM (inactive)	35.7 µM (inactive)	5.28 µM (inactive)	43 µM (inactive)	47.6 µM (inactive)	20.2 µM (inactive)	10.6 µM (inactive)	49.8 µM (inactive)	31.6 µM (inactive)	61.8 µM (inactive)	23.6 µM (inactive)	56.5 µM (inactive)	85.1 µM (inactive)	35.8 µM (inactive)
COc1ccc2nc3ccc(OC)cc3c(SCCO)c2c1	15.8 µM (inactive)	27 µM (inactive)	4.17 µM (inactive)	12.3 µM (inactive)	68.9 µM (inactive)	> 59.7 µM (inactive)	51.3 µM (inactive)	32.7 µM (inactive)	3.03 µM (inactive)	17 µM (inactive)	31.3 µM (inactive)	23.6 µM (inactive)	36 µM (inactive)	16.2 µM (inactive)	34.7 µM (inactive)	28.4 µM (inactive)	21.5 µM (inactive)	15 µM (inactive)	55.8 µM (inactive)	63.8 µM (inactive)
CN(CCn1cnc2c1c(=O)n(C)c(=O)n2C)C1CCCCC1	> 100 µM (inactive)	> 100 µM (inactive)	> 100 µM (inactive)	> 100 µM (inactive)	> 100 µM (inactive)	> 100 µM (inactive)	> 100 µM (inactive)	> 100 µM (inactive)	> 100 µM (inactive)	> 100 µM (inactive)	> 100 µM (inactive)	> 100 µM (inactive)	> 100 µM (inactive)	> 100 µM (inactive)	> 100 µM (inactive)	> 100 µM (inactive)	> 100 µM (inactive)	> 100 µM (inactive)	> 100 µM (inactive)	> 100 µM (inactive)
Cc1ccc(C2=Nc3cc(C)c(Cl)cc3S(=O)(=O)NN2)cc1	> 100 µM (inactive)	> 100 µM (inactive)	34.4 µM (inactive)	> 100 µM (inactive)	> 100 µM (inactive)	44.6 µM (inactive)	49.5 µM (inactive)	> 100 µM (inactive)	37.9 µM (inactive)	> 100 µM (inactive)	> 100 µM (inactive)	> 100 µM (inactive)	> 100 µM (inactive)	> 100 µM (inactive)	23.3 µM (inactive)	> 100 µM (inactive)	> 100 µM (inactive)	> 100 µM (inactive)	> 100 µM (inactive)	77.4 µM (inactive)
CCC1(CC)C(=O)CC[C@@]2(C)C1=CC[C@H]1[C@@H]3CC[C@H](O)[C@@]3(C)CC[C@@H]12	22.2 µM (inactive)	43.2 µM (inactive)	18.6 µM (inactive)	12.1 µM (inactive)	16.3 µM (inactive)	24 µM (inactive)	19.9 µM (inactive)	26.7 µM (inactive)	25.6 µM (inactive)	23.5 µM (inactive)	> 100 µM (inactive)	28 µM (inactive)	19.7 µM (inactive)	48.9 µM (inactive)	47.9 µM (inactive)	19.1 µM (inactive)	61 µM (inactive)	37.8 µM (inactive)	> 100 µM (inactive)	34.8 µM (inactive)
O=C(OCC1OC(n2nc(Cn3nnc(-c4cccnc4)n3)n(-c3cccc4ccccc34)c2=S)C(OC(=O)c2ccccc2)C1OC(=O)c1ccccc1)c1ccccc1 (stereo not given)	> 100 µM (inactive)	> 100 µM (inactive)	> 100 µM (inactive)	> 100 µM (inactive)	> 100 µM (inactive)	> 100 µM (inactive)	> 100 µM (inactive)	> 100 µM (inactive)	> 100 µM (inactive)	> 100 µM (inactive)	> 100 µM (inactive)	> 100 µM (inactive)	> 100 µM (inactive)	> 100 µM (inactive)	53.8 µM (inactive)	> 100 µM (inactive)	> 100 µM (inactive)	> 100 µM (inactive)	> 100 µM (inactive)	> 100 µM (inactive)
CCOc1ccc(/N=N/c2ccc3cc(/C(C)=N/NC(=O)/C(C#N)=C\c4ccc(N(CCC#N)CCC#N)cc4)c(=O)oc3c2)cc1	> 10 µM (inactive)	> 10 µM (inactive)	> 10 µM (inactive)	> 10 µM (inactive)	> 10 µM (inactive)	> 10 µM (inactive)	> 10 µM (inactive)	> 10 µM (inactive)	> 10 µM (inactive)	> 10 µM (inactive)	> 10 µM (inactive)	> 10 µM (inactive)	> 10 µM (inactive)	> 10 µM (inactive)	> 10 µM (inactive)	> 10 µM (inactive)	> 10 µM (inactive)	> 10 µM (inactive)	> 10 µM (inactive)	> 10 µM (inactive)
CCN(CC)CCNc1c2ccccc2nc2cccc([N+](=O)[O-])c12	0.00676 µM (active)	0.0112 µM (active)	0.046 µM (active)	0.00659 µM (active)	0.00622 µM (active)	0.0186 µM (active)	0.0288 µM (active)	0.0255 µM (active)	0.0117 µM (active)	0.0177 µM (active)	0.005 µM (active)	0.00461 µM (active)	0.0123 µM (active)	0.00787 µM (active)	0.00136 µM (active)	0.0116 µM (active)	0.00164 µM (active)	0.0182 µM (active)	0.04 µM (active)	0.0125 µM (active)
N=C1/C(=C/c2ccccc2)C(=O)N=C2SC=NN12	> 100 µM (inactive)	> 100 µM (inactive)	> 100 µM (inactive)	> 100 µM (inactive)	> 100 µM (inactive)	> 100 µM (inactive)	> 100 µM (inactive)	> 100 µM (inactive)	> 100 µM (inactive)	> 100 µM (inactive)	> 100 µM (inactive)	> 100 µM (inactive)	> 100 µM (inactive)	> 100 µM (inactive)	> 100 µM (inactive)	> 100 µM (inactive)	> 100 µM (inactive)	> 100 µM (inactive)	> 100 µM (inactive)	> 100 µM (inactive)
O=C(CNc1ccc2c(=S)c3ccccc3[nH]c2c1)Nc1ccccc1-c1ccccc1NC(=O)CNc1ccc2c(=S)c3ccccc3[nH]c2c1	18.5 µM (inactive)	31.2 µM (inactive)	2.99 µM (inactive)	8.75 µM (inactive)	17.1 µM (inactive)	17.2 µM (inactive)	26.1 µM (inactive)	21 µM (inactive)	3.96 µM (inactive)	23.9 µM (inactive)	23.8 µM (inactive)	11.9 µM (inactive)	24.8 µM (inactive)	13.8 µM (inactive)	22.7 µM (inactive)	18.4 µM (inactive)	24 µM (inactive)	20.2 µM (inactive)	21.9 µM (inactive)	3.94 µM (inactive)
Cc1cn(CCCCCOC(=O)NC(CCCNC(=N)N)C(=O)O)c(=O)[nH]c1=O (stereo not given)	37.6 µM (inactive)	23.1 µM (inactive)	17 µM (inactive)	11.7 µM (inactive)	38.2 µM (inactive)	40.8 µM (inactive)	> 100 µM (inactive)	> 100 µM (inactive)	35.6 µM (inactive)	39.4 µM (inactive)	> 100 µM (inactive)	26.1 µM (inactive)	50.9 µM (inactive)	40.2 µM (inactive)	69.8 µM (inactive)	38.7 µM (inactive)	6.32 µM (inactive)	38.1 µM (inactive)	76.4 µM (inactive)	> 100 µM (inactive)
C[C@@H]1CC(=O)[C@@]2(C)[C@](O)(CCC3O[C@]32C)[C@@]12CC(c1ccoc1)OC2=O (stereo not given in full)	34.5 µM (inactive)	46.2 µM (inactive)	24.9 µM (inactive)	33.3 µM (inactive)	66.7 µM (inactive)	> 100 µM (inactive)	> 100 µM (inactive)	> 100 µM (inactive)	23 µM (inactive)	> 100 µM (inactive)	68.2 µM (inactive)	65 µM (inactive)	> 100 µM (inactive)	> 100 µM (inactive)	> 100 µM (inactive)	37.4 µM (inactive)	42 µM (inactive)	> 100 µM (inactive)	> 100 µM (inactive)	> 100 µM (inactive)
CC1=C[C@@H](C)C[C@]2(C)CC[C@H](O2)[C@]23CC[C@](C(=O)O)(C[C@H](O2)[C@@H]2O[C@@](C)(CC2=O)[C@@H](O)[C@H]2CC[C@@]4(CCC[C@@H](O4)[C@H](C)C(=O)O[C@H]4C[C@H]([C@]5(O)OCC[C@H](C)[C@@H]5O)O[C@H]4C=C1)O2)O3	> 10 µM (inactive)	> 10 µM (inactive)	> 10 µM (inactive)	> 10 µM (inactive)	> 10 µM (inactive)	> 10 µM (inactive)	> 7.62 µM (inactive)	> 10 µM (inactive)	> 10 µM (inactive)	> 10 µM (inactive)	> 7.83 µM (inactive)	> 8.55 µM (inactive)	> 10 µM (inactive)	> 10 µM (inactive)	> 10 µM (inactive)	> 10 µM (inactive)	> 10 µM (inactive)	> 5.5 µM (inactive)	> 10 µM (inactive)	> 10 µM (inactive)
